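Test compounds were applied to cells in 96-well plates for 48 hours at 5 doses. TGI: concentration producing complete growth inhibition.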
What was measured:
Experiment in all cases: NCI anticancer screen, dose series, 48 h
[1] = tested on: RPMI-8226 leukemia
[2] = tested on: OVCAR-4 ovarian
[3] = tested on: SW-620 colon
[4] = tested on: SK-MEL-28 melanoma
[5] = tested on: SK-OV-3 ovarian
[6] = tested on: U251 CNS
[7] = tested on: KM20L2 colon
[8] = tested on: OVCAR-5 ovarian
[9] = tested on: IGROV1 ovarian
[10] = tested on: 786-0 renal
[11] = tested on: HCT-15 colon
[12] = tested on: UACC-257 melanoma
[13] = tested on: M19-MEL melanoma
[14] = tested on: ACHN renal
[15] = tested on: DLD-1 colon
[16] = tested on: K-562 leukemia
[17] = tested on: EKVX NSCLC
[18] = tested on: DMS 114 small cell lung
[19] = tested on: HOP-62 NSCLC
[20] = tested on: XF 498 CNS
[21] = tested on: SF-295 CNS
[22] = tested on: HCC-2998 colon
[23] = tested on: SK-MEL-2 melanoma
[24] = tested on: M14 melanoma
[25] = tested on: TK-10 renal
[26] = tested on: HT29 colon
[27] = tested on: NCI-H226 lung
[28] = tested on: DMS 273 small cell lung
[29] = tested on: OVCAR-3 ovarian
[30] = tested on: A549 NSCLC
[31] = tested on: RXF 393 renal
[32] = tested on: MOLT-4 leukemia
[33] = tested on: KM12 colon
[34] = tested on: CCRF-CEM leukemia
[35] = tested on: SNB-75 CNS
[36] = tested on: LXFL 529 NSCLC
[37] = tested on: UACC-62 melanoma
[38] = tested on: SNB-78 CNS
[39] = tested on: UO-31 renal
[40] = tested on: CAKI-1 renal
[41] = tested on: NCI-H23 lung
[42] = tested on: A498 renal
[43] = tested on: HCT-116 colon
[44] = tested on: SK-MEL-5 melanoma
[45] = tested on: MALME-3M melanoma
[46] = tested on: NCI-H460 lung
[47] = tested on: SF-539 CNS
[48] = tested on: OVCAR-8 ovarian
[49] = tested on: HL-60(TB) leukemia
[50] = tested on: SNB-19 CNS
[51] = tested on: NCI-H522 lung
[52] = tested on: SR leukemia
[53] = tested on: SF-268 CNS
[54] = tested on: COLO 205 colon
[55] = tested on: SN12C renal
[56] = tested on: LOX IMVI melanoma

Molecule `C[C@]12CCC(=O)C=C1CC[C@@H]1C2CC[C@]2(C)Nc3[nH]ncc3CC12` (stereo partly specified) has a TGI [1] of over 100 µM, a TGI [2] of over 100 µM and a TGI [3] of over 100 µM. It also gave a TGI [4] of over 100 µM, a TGI [5] of over 100 µM and a TGI [6] of over 100 µM. For the same molecule, the TGI [7] was over 100 µM, the TGI [8] was over 100 µM and the TGI [9] was over 100 µM. It also gave a TGI [10] of over 100 µM, a TGI [11] of over 100 µM and a TGI [12] of over 100 µM. The TGI [13] was over 100 µM, the TGI [14] was over 100 µM and the TGI [15] was over 100 µM. It also gave a TGI [16] of over 100 µM, a TGI [17] of over 100 µM and a TGI [18] of over 100 µM. It also gave a TGI [19] of over 100 µM, a TGI [20] of over 100 µM and a TGI [21] of over 100 µM. For the same molecule, the TGI [22] was over 100 µM, the TGI [23] was over 100 µM and the TGI [24] was over 100 µM. The TGI [25] was over 100 µM, the TGI [26] was over 100 µM and the TGI [27] was over 100 µM. For the same molecule, the TGI [28] was over 100 µM, the TGI [29] was over 100 µM and the TGI [30] was over 100 µM. For the same molecule, the TGI [31] was over 100 µM, the TGI [32] was over 100 µM and the TGI [33] was over 100 µM. For the same molecule, the TGI [34] was over 100 µM, the TGI [35] was over 100 µM and the TGI [36] was over 100 µM. For the same molecule, the TGI [37] was over 100 µM, the TGI [38] was over 100 µM and the TGI [39] was over 100 µM. The TGI [40] was over 100 µM, the TGI [41] was over 100 µM and the TGI [42] was over 100 µM. For the same molecule, the TGI [43] was over 100 µM, the TGI [44] was over 100 µM and the TGI [45] was over 100 µM. It also gave a TGI [46] of over 100 µM, a TGI [47] of over 100 µM and a TGI [48] of over 100 µM. It also gave a TGI [49] of over 100 µM.
For `CN(C)CCNC(=O)c1cccc2c(Nc3ccc(S(=O)(=O)N=C(N)N)cc3)c3ccccc3nc12`, the TGI [50] was 17.9 µM, the TGI [2] was 30 µM and the TGI [3] was over 100 µM. It also gave a TGI [4] of 71.2 µM, a TGI [51] of 17.3 µM and a TGI [6] of 67 µM. For the same molecule, the TGI [7] was over 100 µM, the TGI [8] was 90.4 µM and the TGI [9] was 45 µM. For the same molecule, the TGI [10] was 60 µM, the TGI [11] was over 100 µM and the TGI [52] was over 100 µM. It also gave a TGI [13] of 59.9 µM, a TGI [14] of 61.1 µM and a TGI [15] of over 100 µM. It also gave a TGI [16] of 77.4 µM, a TGI [17] of 55.3 µM and a TGI [18] of 15.1 µM. For the same molecule, the TGI [19] was 39.2 µM, the TGI [20] was 47.4 µM and the TGI [53] was 26.6 µM. The TGI [21] was 75.2 µM, the TGI [23] was 38.5 µM and the TGI [24] was over 100 µM. For the same molecule, the TGI [25] was over 100 µM, the TGI [26] was over 100 µM and the TGI [27] was 10.1 µM. It also gave a TGI [28] of 24.2 µM, a TGI [30] of 48.4 µM and a TGI [31] of over 100 µM. It also gave a TGI [54] of 32.2 µM, a TGI [32] of 6.83 µM and a TGI [33] of over 100 µM. The TGI [34] was 30.2 µM, the TGI [35] was 43.8 µM and the TGI [36] was over 100 µM. The TGI [37] was 22.8 µM, the TGI [55] was 59.5 µM and the TGI [39] was 48.6 µM. The TGI [41] was over 100 µM, the TGI [43] was over 100 µM and the TGI [44] was 27.9 µM. It also gave a TGI [46] of 18.7 µM, a TGI [47] of 36.7 µM and a TGI [56] of 20.8 µM. For the same molecule, the TGI [48] was 69.1 µM and the TGI [49] was 2.59 µM.

Reference: PubChem BioAssay (NCI)
